Measured values as given in PubChem BioAssay (NCI).
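Protocol summary: plate cells (96-well), add compound at 5 concentrations, incubate 48 h, interpolate endpoints linearly. GI50: concentration for 50% inhibition of growth. TGI: total growth inhibition.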 Where a SMILES comes first, the peptide text is derived from it. The star is where a group is joined. Cbz = O=C(OCc1ccccc1)*; OBn = c1ccc(CO*)cc1

Experiments:
Assay in all cases: DTP human tumour cell line panel, 48 h
[1] = tested on: CCRF-CEM leukemia
[2] = tested on: M14 melanoma
[3] = tested on: HT29 colon
[4] = tested on: HOP-62 NSCLC
[5] = tested on: MDA-N
[6] = tested on: SR leukemia
[7] = tested on: DU-145 prostate
[8] = tested on: NCI-H23 lung
[9] = tested on: OVCAR-5 ovarian
[10] = tested on: HCT-116 colon

COc1ccc(N=N/C(=N/NC(=O)c2ccccc2)c2ccc(N(CCC#N)CCC#N)cc2C)cc1
TGI [1]: > 100 µM | TGI [2]: > 100 µM | TGI [3]: 55 µM | TGI [4]: > 100 µM | TGI [5]: 44.4 µM | TGI [6]: > 100 µM | TGI [7]: > 100 µM | TGI [8]: > 100 µM | TGI [9]: > 100 µM | TGI [10]: > 100 µM

CN(C)Cc1cc(O)c(O)c(CN(C)C)c1
TGI [1]: 61.8 µM | TGI [2]: 59.3 µM | TGI [3]: > 100 µM | TGI [4]: > 100 µM | TGI [5]: > 100 µM | TGI [7]: > 100 µM | TGI [8]: > 100 µM | TGI [9]: > 100 µM | TGI [10]: > 100 µM

Oc1ccc(SCc2cc(O)c(O)c(O)c2)cc1
TGI [1]: 74.4 µM | TGI [2]: 33.1 µM | TGI [3]: 48.1 µM | TGI [4]: 56.4 µM | TGI [6]: > 100 µM | TGI [7]: > 100 µM | TGI [8]: > 100 µM | TGI [9]: 50.7 µM | TGI [10]: 34.2 µM

CN(C)CCSC(=Nc1ccccc1)N1CCCCC1
TGI [1]: > 100 µM | TGI [2]: 29.9 µM | TGI [3]: 33 µM | TGI [4]: > 100 µM | TGI [6]: 97.3 µM | TGI [8]: 37.3 µM | TGI [9]: 35.3 µM | TGI [10]: 33.8 µM

Cc1[nH]c2ccccc2c1C=Nc1ccc(N=Cc2c(C)[nH]c3ccccc23)cc1
TGI [1]: 47.6 µM | TGI [2]: > 100 µM | TGI [3]: > 100 µM | TGI [4]: > 100 µM | TGI [5]: > 100 µM | TGI [6]: 46.9 µM | TGI [7]: > 100 µM | TGI [8]: > 100 µM | TGI [9]: > 100 µM | TGI [10]: 38.2 µM

CC[C@H](C)[C@H]1NC(=O)[C@@H](NC(=O)[C@@H](CC(C)C)N(C)CC2CCCN2C(=O)C(C)=O)[C@@H](C)OC(=O)[C@H](Cc2ccc(OC)cc2)N(C)C(=O)C2CCCN2C(=O)[C@H](CC(C)C)NC(=O)[C@@H](C)C(=O)[C@H](C(C)C)OC(=O)C[C@@H]1O (some centres undefined)
TGI [1]: 0.00404 µM | TGI [2]: 0.00972 µM | TGI [3]: 0.0065 µM | TGI [4]: 0.00713 µM | TGI [5]: 0.02 µM | TGI [6]: 0.00471 µM | TGI [7]: 0.0032 µM | TGI [8]: 0.0591 µM | TGI [9]: 0.014 µM | TGI [10]: 0.0102 µM

c1ccc2c(c1)nc(NC1CCCC1)c1[nH]c(C3CCCC3)nc12
TGI [1]: 64.3 µM | TGI [2]: 10 µM | TGI [3]: 20.1 µM | TGI [4]: 35.9 µM | TGI [6]: 63.5 µM | TGI [8]: 32.7 µM | TGI [9]: 61.1 µM | TGI [10]: 17.6 µM

COC(=O)C(Cc1ccc(O)cc1)NC(=O)C(CC(=O)OCc1ccccc1)NC(=O)OCc1ccccc1 (centres undefined) (Cbz-Asp(OBn)-Tyr-OMe; configuration not given here)
TGI [1]: > 100 µM | TGI [2]: 44.4 µM | TGI [3]: 32.2 µM | TGI [4]: 34.6 µM | TGI [5]: 35.7 µM | TGI [6]: 66.3 µM | TGI [8]: 66.1 µM | TGI [9]: 43.2 µM | TGI [10]: 35.1 µM

CSc1c(C#N)c(=O)[nH]c2n[nH]c(C)c12
TGI [1]: > 100 µM | TGI [2]: > 100 µM | TGI [3]: > 100 µM | TGI [5]: > 100 µM | TGI [6]: > 100 µM | TGI [7]: > 100 µM | TGI [8]: > 100 µM | TGI [9]: > 100 µM | TGI [10]: > 100 µM

O=C(N/N=C/c1cc(Cl)cc(Cl)c1[O-])c1ccccc1O.O=C(N/N=C/c1cc(Cl)cc(Cl)c1[O-])c1ccccc1O.[Ni+2]
TGI [2]: 1.84 µM | TGI [3]: 3.4 µM | TGI [4]: 2.09 µM | TGI [6]: 1.46 µM | GI50 [8]: 0.456 µM | TGI [8]: 1.71 µM | TGI [9]: 1.09 µM | GI50 [10]: 0.439 µM | TGI [10]: 1.5 µM

CCCNC(C#N)c1ccc(C(C#N)NCCC)cc1 (centres undefined)
TGI [1]: > 100 µM | TGI [2]: > 100 µM | TGI [3]: > 100 µM | TGI [5]: > 100 µM | TGI [7]: > 100 µM | TGI [8]: > 100 µM | TGI [9]: > 100 µM | TGI [10]: > 100 µM

CC(=O)OC(OC(C)=O)n1cc(C=O)c2ccccc21
TGI [1]: > 100 µM | TGI [2]: > 100 µM | TGI [3]: > 100 µM | TGI [4]: > 100 µM | TGI [6]: > 100 µM | TGI [7]: > 100 µM | TGI [8]: > 100 µM | TGI [9]: > 100 µM | TGI [10]: > 100 µM

N#C[S-].[Nd+3].c1ccc(-c2ccccn2)nc1.c1ccc(-c2ccccn2)nc1.c1ccc(-c2ccccn2)nc1
GI50 [2]: 2260 nM | TGI [2]: 5.96 µM | GI50 [3]: 4.83 µM | TGI [3]: > 100 µM | GI50 [6]: 6.9 µM | TGI [6]: > 100 µM | GI50 [8]: 25.8 µM | TGI [8]: 98.7 µM | GI50 [10]: 8.4 µM | TGI [10]: > 100 µM

COc1cccc(Cc2c3cc(OC)ccc3cc[n+]2C)c1
TGI [1]: > 100 µM | TGI [2]: > 100 µM | TGI [3]: > 100 µM | TGI [4]: > 100 µM | TGI [8]: > 100 µM | TGI [9]: > 100 µM

COc1ccc2c(c1)n([O-])c(C#N)c(N1CCN(c3ccc([N+](=O)[O-])cc3)CC1)[n+]2=O
TGI [1]: > 100 µM | TGI [2]: > 100 µM | TGI [3]: > 100 µM | TGI [4]: > 71.4 µM | TGI [5]: > 100 µM | TGI [7]: > 84.1 µM | TGI [8]: > 100 µM | TGI [9]: > 100 µM | TGI [10]: > 100 µM

O=C1Nc2cc([N+](=O)[O-])ccc2NC1/C(=N\Nc1ccccc1)C(O)c1cccc([N+](=O)[O-])c1 (centres undefined)
TGI [1]: > 100 µM | TGI [2]: > 100 µM | TGI [3]: > 100 µM | TGI [4]: > 100 µM | TGI [8]: > 100 µM | TGI [9]: > 100 µM | TGI [10]: > 100 µM

C/C(=N\NC(N)=S)C(CN(CC(C)C)CC(C)C)C(=O)Nc1ccc(C)cc1C (centres undefined)
TGI [1]: > 100 µM | TGI [2]: > 100 µM | TGI [3]: > 100 µM | TGI [4]: > 100 µM | TGI [6]: > 100 µM | TGI [8]: > 100 µM | TGI [9]: > 100 µM | TGI [10]: > 100 µM

Cc1cc(S(=O)(=O)O)c(NC(=O)C(=O)C2C=CCS2(=O)=O)cc1Cl (centres undefined)
TGI [1]: > 100 µM | TGI [2]: > 100 µM | TGI [3]: > 100 µM | TGI [4]: > 100 µM | TGI [6]: > 100 µM | TGI [8]: > 100 µM | TGI [9]: > 100 µM | TGI [10]: > 100 µM

Cc1cccc(C2=NC(C)(C)C(C)(C)N=C2c2cccc(C)n2)n1
TGI [1]: > 100 µM | TGI [2]: > 100 µM | TGI [3]: > 100 µM | TGI [4]: > 100 µM | TGI [8]: > 100 µM | TGI [9]: > 100 µM | TGI [10]: > 100 µM

O=C(NC1CCN(Cc2ccccc2)CC1)c1cc2nc(-c3ccc(Cl)s3)cc(C(F)(F)F)n2n1
GI50 [1]: > 100 µM | TGI [1]: > 100 µM | GI50 [3]: 3.14 µM | TGI [3]: > 100 µM | GI50 [4]: 27 µM | TGI [4]: > 100 µM | GI50 [6]: 2.13 µM | TGI [6]: 4.97 µM | GI50 [7]: > 100 µM | TGI [7]: > 100 µM | GI50 [8]: > 100 µM | TGI [8]: > 100 µM | GI50 [10]: 4.84 µM | TGI [10]: > 100 µM

C=C(CC[C@@H](C(=O)O)[C@H]1[C@H](O)C[C@@]2(C)C3=CC[C@@H](C(=C)C)[C@](C)(CCC(=O)O)C3=CC[C@]12C)C(C)C
TGI [1]: > 100 µM | TGI [2]: 32.7 µM | TGI [3]: 32.8 µM | TGI [5]: 32 µM | TGI [7]: 38.9 µM | TGI [8]: 31.6 µM | TGI [9]: 30.5 µM | TGI [10]: 30.7 µM

O=c1c(C=Nc2ccc([N+](=O)[O-])cc2)c(O)n(-c2ccccc2)c(=O)n1-c1ccccc1
TGI [1]: > 100 µM | TGI [2]: > 100 µM | TGI [3]: > 100 µM | TGI [4]: > 100 µM | TGI [5]: > 100 µM | TGI [6]: > 100 µM | TGI [8]: > 100 µM | TGI [9]: > 100 µM | TGI [10]: > 100 µM
